# Assay results from patent publication US20150111737A1, “SYNERGISTIC PESTICIDAL COMPOSITIONS AND RELATED METHODS” (Dow AgroSciences LLC, priority 2013, published 2015).
# Test system: diamondback moth, Plutella xylostella
# Assay: Cabbage leaf bioassay (track sprayer) against second instar diamondback moth; synergy judged by Colby's equation
# Assay type: in vivo
# Conditions: single active, dose rate 0.0025 weight %, 400 L/Ha spray
# Description: The method described in Colby S. R., “Calculating Synergistic and Antagonistic Responses of Herbicide Combinations,” Weeds, 1967, 15, 20-22 was used to determine an existence of synergic effect between the juvenile hormone mimicking compound and the pesticide (I), (II), or any agriculturally acceptable salt thereof in the formulated pesticidal composition. In this method, the percent insect control of the formulated pesticidal composition as observed in the study was compared to the “expected” percent control (E) as calculated by equation (1) (hereinafter “Colby's equation”) below: […]
# Bioassays were performed for different active compounds. Cabbage plants with about two to three new-growth-true leaf stage were treated with different active compounds using a track sprayer application at 400 L/Ha spray volume. Three second instar diamondback moths, Plutella xylostella, were infested onto each leaf disc. The percent control of the pesticidal composition against diamondback moth, Plutella xylostella, was determined as the “Observed” action, and compared to those obtained by using about 0.0025 weight % of Compound II, and using about 0.000391 weight % of pyriproxyfen alone. The “Colby's Expected Action” was calculated using Colby's equation as discussed previously. […]
# The percent control may be determined some time after treatment.
row,Compound,% Control Three Days After Treatment
1,"CCN(C(=O)CCSCCC(F)(F)F)c1cn(-c2cccnc2)nc1Cl [Compound I, N-(3-chloro-1-(pyridin-3-yl)-1H-pyrazol-4-yl)-N-ethyl-3-((3,3,3-trifluoropropyl)thio)propanamide]",0%
2,"CCN(C(=O)CC[S+]([O-])CCC(F)(F)F)c1cn(-c2cccnc2)nc1Cl (centres unmarked) [Compound II, N-(3-chloro-1-(pyridin-3-yl)-1H-pyrazol-4-yl)-N-ethyl-3-((3,3,3-trifluoropropyl)sulfinyl)propanamide]",0%
